These results are taken from ChEMBL document CHEMBL3091296, “Design, synthesis and biological evaluation of 3-benzyloxy-linked pyrimidinylphenylamine derivatives as potent HIV-1 NNRTIs” (Bioorg Med Chem, 2013).

Series [1] is described as follows: Selectivity index, ratio of CC50 for human MT4 cells to EC50 for wild-type HIV1 3B infected in MT4 cells. Type of series: toxicity, cell-based. Particulars: read-out: Ratio CC50/EC50.
Series [2] in a line: Cytotoxicity against mock-infected human MT4 cells after 5 days by MTT assay. Type of series: cell-based. (Tetrazolium assays rely on reduction of a dye to a coloured formazan, in cell work by metabolically active cells.)
Series [3] relates to Human immunodeficiency virus 2. Description: Antiviral activity against HIV2 ROD infected in MT4 cells assessed as reduction in virus-induced cytopathic effect after 5 days by MTT assay. In kind it is functional, organism-based. Particulars: Human immunodeficiency virus 2, ISOLATE ROD, MT4, 120 h. Background: Damage to the host cells serves as the signal in cytopathic effect assays.

The subject of series [4] is Human immunodeficiency virus 1. Description: Antiviral activity against wild-type HIV1 3B infected in MT4 cells assessed as reduction in virus-induced cytopathic effect after 5 days by MTT assay. In kind it is functional, organism-based. The settings on record: Human immunodeficiency virus 1, 3B, MT4, 120 h.
The subject of series [5] is Human immunodeficiency virus 1. Description: Antiviral activity against HIV1 harboring reverse transcriptase K103N/Y181C mutant infected in MT4 cells assessed as reduction in virus-induced cytopathic effect after 5 days by MTT assay. The settings on record: Human immunodeficiency virus 1, MT4, 120 h. In kind it is functional, organism-based.
Series [6] addresses Human immunodeficiency virus type 1 reverse transcriptase (Human immunodeficiency virus 1, UniProt Q72547). Put plainly: Inhibition of HIV-1 reverse transcriptase assessed as inhibition of biotin dUTP incorporation by primer extension assay.

With `COc1ccnc(Nc2ccc(Cl)c(Oc3ccccc3)c2)n1`, in series [1], the selectivity ratio was determined as 15.
`COc1ccnc(Nc2ccc(Cl)c(OCc3ccc(C#N)cc3)c2)n1` came in with a half-maximal cytotoxic concentration (CC50) at 120 h in series [2] of 283 µM. The EC50 in series [3] was over 283 µM; in series [4], 17 µM; in series [5], over 283 µM. Besides, the selectivity ratio in series [1] came to 17.
`COc1ccnc(Nc2ccc(Cl)c(OCc3ccccc3C)c2)n1` showed a CC50 at 120 h in series [2] of 8.8 µM. For the same molecule, the EC50 in series [3] is over 8.8 µM; in series [4], 0.082 µM; in series [5], over 8.8 µM. Further, the selectivity ratio in series [1] turned out to be 106.
On to `COc1ccc(COc2cc(Nc3nccc(OC)n3)ccc2Cl)cc1`, for which the CC50 at 120 h in series [2] is at least 290 µM. In addition, the EC50 in series [3] is over 290 µM; in series [4], 7.8 µM; in series [5], over 290 µM. For the same molecule, the selectivity ratio in series [1] is at least 37.
For `COc1ccnc(Nc2ccc(Cl)c(OCc3ccc([N+](=O)[O-])cc3)c2)n1`, the CC50 at 120 h in series [2] is over 323 µM. Besides, the EC50 in series [4] is over 323 µM. Also, the selectivity ratio in series [1] was over 1.
`COC(=O)c1ccc(COc2cc(Nc3nccc(OC)n3)ccc2Cl)cc1` had a CC50 at 120 h in series [2] of at least 106 µM. Moreover, the values for the EC50 in series [3] and in series [4] were over 1.6 µM and over 106 µM, respectively. Moreover, in series [1], the selectivity ratio was under 1.
Take `COc1ccnc(Nc2ccc(Cl)c(OCc3ccc(C(N)=O)cc3)c2)n1`: the CC50 at 120 h in series [2] is over 325 µM. In addition, the EC50 in series [3] is over 325 µM; in series [4], 35 µM; in series [5], over 325 µM. Further, the selectivity ratio in series [1] is over 9.
The molecule `COc1ccnc(Nc2ccc(Cl)c(OCc3cccc(Cl)c3)c2)n1` returned a CC50 at 120 h in series [2] of over 332 µM. Further, the EC50 was over 332 µM in series [3], 0.23 µM in series [4] and over 332 µM in series [5]. Besides, the selectivity ratio in series [1] was over 1460.
In the case of `COc1ccnc(Nc2ccc(Cl)c(OCc3ccc(Cl)cc3)c2)n1`, in series [2], the CC50 at 120 h was found to be 95 µM. In addition, the EC50 in series [3] was over 95 µM; in series [4], 7.7 µM; in series [5], over 95 µM. For the same molecule, the selectivity ratio in series [1] was 12.
In turn, `COc1ccnc(Nc2ccc(Cl)c(OCc3ccc(Cl)cc3Cl)c2)n1` displayed a CC50 at 120 h in series [2] of 77 µM. Besides, the EC50 in series [3] and in series [4] was over 77 µM each time. The selectivity ratio in series [1] was under 1.
In series [2], `COc1ccnc(Nc2ccc(Cl)c(OCc3ccc(Cl)c(Cl)c3)c2)n1` displayed a CC50 at 120 h of over 304 µM. The EC50 in series [3] and in series [4] was over 304 µM each time. The selectivity ratio in series [1] is over 1.
In series [2], `COc1ccnc(Nc2ccc(Cl)c(OCc3ccccc3F)c2)n1` showed a CC50 at 120 h of 42 µM. Further, the EC50 was over 42 µM in series [3], 0.05 µM in series [4] and over 42 µM in series [5]. Moreover, the selectivity ratio in series [1] is 777.
Turning to `COc1ccnc(Nc2ccc(Cl)c(OCc3cccc(F)c3)c2)n1`, the CC50 at 120 h in series [2] is over 347 µM. Moreover, in series [6], the IC50 came out at 1.5 µM. The values for the EC50 in series [3], in series [4] and in series [5] were over 347 µM, 0.07 µM and over 347 µM, respectively. The selectivity ratio in series [1] was over 4870.
On to `COc1ccnc(Nc2ccc(Cl)c(OCc3ccc(F)cc3)c2)n1`, for which, in series [2], the midpoint of cytotoxicity, the CC50 at 120 h, lay at 218 µM. For the same molecule, the EC50 in series [3] was over 218 µM; in series [4], 0.71 µM; in series [5], over 218 µM. Also, the selectivity ratio in series [1] was 309.
Regarding `COc1ccnc(Nc2ccc(Cl)c(OCc3ccccc3Br)c2)n1`, the CC50 at 120 h in series [2] was 52 µM. Moreover, the EC50 in series [3] was over 52 µM; in series [4], 0.33 µM; in series [5] it was over 52 µM. In series [1], the selectivity ratio was 158.
Consider `COc1ccnc(Nc2ccc(Cl)c(OCc3cccc(Br)c3)c2)n1`, for which the CC50 at 120 h in series [2] is over 297 µM. Besides, the EC50 in series [3] is over 297 µM; in series [4] it was 0.76 µM; in series [5], over 297 µM. For the same molecule, in series [1], the selectivity ratio was over 393.
`COc1ccnc(Nc2ccc(Cl)c(OCc3ccc(Br)cc3)c2)n1`: the CC50 at 120 h in series [2] was 224 µM. Besides, the EC50 is over 224 µM in series [3], 23 µM in series [4] and over 224 µM in series [5]. Moreover, the selectivity ratio in series [1] was determined as 10.
Molecule `COc1ccnc(Nc2ccc(Cl)c(OCc3ccccc3C#N)c2)n1` had a CC50 at 120 h in series [2] of 199 µM. Besides, the results for the EC50 in series [3], in series [4] and in series [5] were over 199 µM, 0.15 µM and over 199 µM, respectively. Besides, the selectivity ratio in series [1] was 1290.
Turning to `COc1ccnc(Nc2ccc(Cl)c(OCc3ccccc3Cl)c2)n1`, the CC50 at 120 h in series [2] was determined as 33 µM. In addition, the 50% effective concentration (EC50) in series [3] was over 33 µM; in series [4] it was 0.23 µM; in series [5], over 33 µM. In addition, in series [1], the selectivity ratio came out at 143.
With `COc1ccnc(Nc2ccc(Cl)c(OCc3ccccc3)c2)n1`, the CC50 at 120 h in series [2] was found to be 62 µM. In addition, the EC50 was over 62 µM in series [3], 0.075 µM in series [4] and over 62 µM in series [5]. Further, the selectivity ratio in series [1] was 833.
As for `O=C1Nc2ccc(Cl)cc2[C@@](C#CC2CC2)(C(F)(F)F)O1` [EFAVIRENZ], the EC50 was determined as 0.009 µM in series [4] and 0.52 µM in series [5]. Moreover, the selectivity ratio in series [1] was over 693.
As to `Cc1ccnc2c1NC(=O)c1cccnc1N2C1CC1` [NEVIRAPINE], in series [2], the CC50 at 120 h was over 15 µM. Further, the EC50 in series [4] was 0.113 µM; in series [5], over 5 µM.

For orientation: CC50 means the concentration that lowers cell viability or growth by half. A word on the EC50: it is the concentration that produces a half-maximal response. As usually defined, the IC50 is the midpoint of a concentration-inhibition curve.
